Measured values reported in the NIST ThermoML archive (doi:10.1016/j.jct.2014.01.012).

Experiment: refractive index (Na D-line) (dimensionless); xn = mol fraction of the nth substance listed
Settings: 101 kPa, Liquid

CCCCCCn1cc[n+](C)c1.F[P-](F)(F)(F)(F)F [1-hexyl-3-methylimidazolium hexafluorophosphate] + CCOC(C)=O
refractive index
Settings	293.15 K	298.15 K	303.15 K	308.15 K	313.15 K	318.15 K	323.15 K
x1 = 0.09053	1.38737	1.38598	1.38515	1.38415	1.38344	1.38227	1.38202
x1 = 0.1751	1.39825	1.39706	1.39611	1.39519	1.39414	1.39389	1.39323
x1 = 0.2748	1.40432	1.40351	1.402	1.40105	1.40023	1.39983	1.3989
x1 = 0.3638	1.40809	1.40694	1.40594	1.40487	1.40397	1.40319	1.40308
x1 = 0.4747	1.41069	1.40989	1.40899	1.40784	1.40699	1.40607	1.40548
x1 = 0.5959	1.41247	1.41194	1.41159	1.41107	1.40998	1.4091	1.4082
x1 = 0.6988	1.41456	1.41432	1.41357	1.41273	1.41182	1.41087	1.40995
x1 = 0.7782	1.41641	1.41609	1.41526	1.41451	1.41389	1.41215	1.41181
x1 = 0.8784	1.41817	1.41813	1.41735	1.41622	1.41498	1.41315	1.41252
x1 = 0.9562	1.42009	1.41886	1.41756	1.41629	1.41507	1.41377	1.41258
x1 = 1	1.42064	1.41935	1.41806	1.41676	1.41547	1.41417	1.41288
